From patent US4246342A, “Process for the manufacture of pyruvate oxidase, and analytical method and kit for the use of the same” (Toyo Jozo Kabushiki Kaisha, priority 1978, dated 1981)

Key:
[1] = target: T1, pyruvate oxidase (IFO-12219) (Aerococcus viridans, UniProt A0ABP2I6X2); assay: Effect of several substances added on the enzyme activity; format: biochemical, Aerococcus viridans IFO-12219; conditions: 5 mM of the substance added instead of MgCl2 in the assay system; enzyme from IFO-12219; MgCl2 = 100
T1 sequence (A0ABP2I6X2 1-592): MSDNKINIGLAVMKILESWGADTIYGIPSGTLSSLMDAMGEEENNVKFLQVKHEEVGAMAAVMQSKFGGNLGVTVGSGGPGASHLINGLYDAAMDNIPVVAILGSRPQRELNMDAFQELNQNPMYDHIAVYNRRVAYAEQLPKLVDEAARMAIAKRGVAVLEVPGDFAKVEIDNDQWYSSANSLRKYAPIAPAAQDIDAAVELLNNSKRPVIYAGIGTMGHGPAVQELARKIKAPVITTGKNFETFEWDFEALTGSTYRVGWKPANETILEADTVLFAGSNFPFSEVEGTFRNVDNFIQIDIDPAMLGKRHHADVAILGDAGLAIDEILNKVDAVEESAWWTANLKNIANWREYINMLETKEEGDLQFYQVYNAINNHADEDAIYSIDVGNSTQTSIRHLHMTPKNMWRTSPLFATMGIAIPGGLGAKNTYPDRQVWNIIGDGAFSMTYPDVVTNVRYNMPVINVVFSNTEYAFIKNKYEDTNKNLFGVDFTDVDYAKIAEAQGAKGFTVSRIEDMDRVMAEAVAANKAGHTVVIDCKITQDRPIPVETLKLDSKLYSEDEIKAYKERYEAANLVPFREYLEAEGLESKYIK
Protocol: (§1) (a) Effect of several substances on the enzyme activity is examined by adding 5 mM of the substance indicated below instead of MgCl2 in the assay system.
(§2) The assay method of pyruvate oxidase of the present invention uses a reaction mixture as follows: […]
(§3) The above reaction mixture (1.0 ml) is pre-incubated at 37° C. for 3 minutes. To this solution is added the enzyme solution (20 μl) and incubated at 37° C. for 10 minutes. 0.1 M citrate buffer (pH 6.0, 2 ml) containing 0.1 M EDTA is added to stop the reaction. The violet color formed is measured by colorimetric method at 565 nm.
(§4) A unit (1 unit, 1 U) of enzyme activity is defined as the activity which generates 1 μmole of hydrogen peroxide per minute.

[2] = test system: pyruvate oxidase (B-0667); assay: as above; format: biochemical, Pediococcus sp. B-0667; conditions: 5 mM of the substance added instead of MgCl2 in the assay system; enzyme from B-0667; MgCl2 = 100
Protocol: as §1, §2, §3, §4

[3] = target: T2, pyruvate oxidase (IFO-12317) (Aerococcus viridans, UniProt A0ABP2I6X2); assay: as above; format: biochemical, Aerococcus viridans IFO-12317; conditions: 5 mM of the substance added instead of MgCl2 in the assay system; enzyme from IFO-12317; MgCl2 = 100
T2 sequence (A0ABP2I6X2 1-592): T1 sequence (A0ABP2I6X2 1-592)
Protocol: as §1, §2, §3, §4

[4] = test system: pyruvate oxidase (B-0668); assay: as above; format: biochemical, Streptococcus sp. B-0668; conditions: 5 mM of the substance added instead of MgCl2 in the assay system; enzyme from B-0668; MgCl2 = 100
Protocol: as §1, §2, §3, §4

[5] = test system: pyruvate oxidase; assay: Effect of substances on the enzyme, summary statements for the four strains; format: biochemical; conditions: summary in words; for Effect on the enzyme (inhibited / activated): 5 mM substance; for Requirement of the enzyme for the substance (cofactor / substrate): elimination from the assay system
Protocol: as §1
0.1 M dimethylglutarate-NaOH buffer is used in the case of phosphate elimination.
The assay method of pyruvate oxidase of the present invention uses a reaction mixture as follows:
as §3

[6] = test system: pyruvate oxidase (B-0667); assay: Effect of elimination of a substance from the assay system on the enzyme activity; format: biochemical, Pediococcus sp. B-0667; conditions: enzyme from B-0667, no elimination = 100, 0.1 M dimethylglutarate-NaOH buffer for phosphate elimination
Protocol: (§5) (b) Effect of elimination of the following substance from the assay system on the enzyme activity is shown below. 0.1 M dimethylglutarate-NaOH buffer is used in the case of phosphate elimination.
as §2, §3, §4

[7] = test system: pyruvate oxidase (B-0668); assay: as above; format: biochemical, Streptococcus sp. B-0668; conditions: enzyme from B-0668, no elimination = 100, 0.1 M dimethylglutarate-NaOH buffer for phosphate elimination
Protocol: as §5, §2, §3, §4

[8] = target: T1, pyruvate oxidase (IFO-12219); assay: as above; format: biochemical, Aerococcus viridans IFO-12219; conditions: enzyme from IFO-12219, no elimination = 100, 0.1 M dimethylglutarate-NaOH buffer for phosphate elimination
Protocol: as §5, §2, §3, §4

[9] = target: T2, pyruvate oxidase (IFO-12317); assay: as above; format: biochemical, Aerococcus viridans IFO-12317; conditions: enzyme from IFO-12317, no elimination = 100, 0.1 M dimethylglutarate-NaOH buffer for phosphate elimination
Protocol: as §5, §2, §3, §4

Compound	Relative activity (%) [1] [%]	Relative activity (%) [2] [%]	Relative activity (%) [3] [%]	Relative activity (%) [4] [%]	Effect on the enzyme (inhibited / activated) [5]	Requirement of the enzyme for the substance (cofactor / substrate) [5]	Relative activity (%), substance eliminated [6] [%]	Relative activity (%), substance eliminated [7] [%]	Relative activity (%), substance eliminated [8] [%]	Relative activity (%), substance eliminated [9] [%]
[Ba+2].[Cl-].[Cl-] [BaCl2]	23.9	20.6	28.8	58.8	–	–	–	–	–	–
[Ca+2].[Cl-].[Cl-] [CaCl2]	83.4	69.4	78.7	75.0	activated	–	–	–	–	–
[Cl-].[Cl-].[Co+2] [CoCl2]	85.0	81.3	84.0	81.1	activated	–	–	–	–	–
O=C(O)CN(CCN(CC(=O)O)CC(=O)O)CC(=O)O [EDTA, ethylene-diaminetetraacetic acid]	0	0	–	0	inhibited	–	–	–	–	–
Cc1cc2nc3c(=O)[nH]c(=O)nc-3n(C[C@H](O)[C@H](O)[C@H](O)COP(=O)(O)OP(=O)(O)OC[C@H]3O[C@@H](n4cnc5c(N)ncnc54)[C@H](O)[C@@H]3O)c2cc1C [FAD, flavin adenine dinucleotide]	–	–	–	–	–	requires	33.9	100	32.7	–
[Cl-].[Cl-].[Mg+2] [MgCl2]	100	100	100	100	activated	–	–	–	–	–
[Cl][Mn][Cl] [MnCl2]	116.2	129.1	111.0	102.7	activated	–	–	–	–	–
Cc1ncc(C[n+]2csc(CCO[P@](=O)(O)OP(=O)(O)O)c2C)c(N)n1 [Thiaminepyrophosphate, thiamine pyrophosphate]	–	–	–	–	–	requires	0	0	0	–
[Cl-].[Cl-].[Zn+2] [ZnCl2]	14.9	16.0	22.8	38.2	–	–	–	–	–	–
phosphate	–	–	–	–	–	requires	0	0	0	0
